# Results taken from US6174873A, “Oral administration of adenosine analogs” (SuperGen, Inc., priority 1998, dated 2001).
# Test: Survival of beagle dogs during the dCF bioavailability study
# Type: in vivo
# Conditions: four female beagle dogs, 0.25 mg/kg IV or 1.25-5.0 mg/kg PO for 2 days
# Source text: Four female beagle dogs were assigned to this study.
smiles,measurement,value
"OC[C@H]1O[C@@H](n2cnc3c2NC=NC[C@H]3O)C[C@@H]1O [dCF, 2'-deoxycoformycin]",mortality during the course of the study,None of the dogs died
